The species named for one experiment is Homo sapiens. In words: Selectivity index, ratio of IC50 for recombinant human C-terminal His-tagged HDAC1 expressed in Sf9 cells to IC50 for recombinant human full length N-terminal GST-tagged HDAC6 expressed in Sf9 cells.
The target of experiment [1] is T1, Protein deacetylase HDAC6 (Homo sapiens, UniProt Q9UBN7).
T1 sequence (Q9UBN7 whole entry): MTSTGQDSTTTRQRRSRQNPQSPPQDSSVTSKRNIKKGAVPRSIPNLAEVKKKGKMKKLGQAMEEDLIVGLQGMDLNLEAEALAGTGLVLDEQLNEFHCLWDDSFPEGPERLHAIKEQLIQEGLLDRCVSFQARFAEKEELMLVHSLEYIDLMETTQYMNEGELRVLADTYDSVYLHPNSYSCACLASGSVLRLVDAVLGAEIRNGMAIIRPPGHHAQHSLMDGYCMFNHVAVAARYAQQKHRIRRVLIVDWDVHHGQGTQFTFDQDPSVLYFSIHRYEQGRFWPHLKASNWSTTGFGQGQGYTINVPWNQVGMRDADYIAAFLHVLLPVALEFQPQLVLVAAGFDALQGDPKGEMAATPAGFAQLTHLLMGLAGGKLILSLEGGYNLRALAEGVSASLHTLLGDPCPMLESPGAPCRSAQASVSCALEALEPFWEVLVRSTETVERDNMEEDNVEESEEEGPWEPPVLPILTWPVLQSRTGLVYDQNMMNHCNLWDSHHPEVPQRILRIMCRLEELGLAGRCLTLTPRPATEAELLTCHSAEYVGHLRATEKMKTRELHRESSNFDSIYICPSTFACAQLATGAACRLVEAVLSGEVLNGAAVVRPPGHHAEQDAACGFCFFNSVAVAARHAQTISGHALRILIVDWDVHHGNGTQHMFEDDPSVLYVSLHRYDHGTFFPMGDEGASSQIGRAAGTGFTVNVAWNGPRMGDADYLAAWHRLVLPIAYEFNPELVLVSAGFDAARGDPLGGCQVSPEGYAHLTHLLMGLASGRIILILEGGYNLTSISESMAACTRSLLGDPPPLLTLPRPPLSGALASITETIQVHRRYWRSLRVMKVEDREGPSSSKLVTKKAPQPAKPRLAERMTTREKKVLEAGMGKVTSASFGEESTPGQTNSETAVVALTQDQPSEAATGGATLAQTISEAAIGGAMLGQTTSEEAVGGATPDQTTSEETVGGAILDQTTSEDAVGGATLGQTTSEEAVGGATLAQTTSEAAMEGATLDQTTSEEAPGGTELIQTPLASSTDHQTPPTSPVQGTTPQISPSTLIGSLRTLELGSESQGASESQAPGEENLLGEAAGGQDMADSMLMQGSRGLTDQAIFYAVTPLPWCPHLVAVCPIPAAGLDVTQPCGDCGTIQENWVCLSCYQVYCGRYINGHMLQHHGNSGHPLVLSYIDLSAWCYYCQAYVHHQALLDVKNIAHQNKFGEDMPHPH
In words: Inhibition of recombinant human full length N-terminal GST-tagged HDAC6 expressed in Sf9 insect cells using Fluor de Lys deacetylase or Fluor de Lys Green deacetylase substrate by fluorescent microplate reader assay.

The target of a further experiment is Histone deacetylase 1 (Homo sapiens, UniProt Q13547). In words: Inhibition of recombinant human C-terminal His-tagged HDAC1 expressed in Sf9 insect cells using Fluor de Lys deacetylase or Fluor de Lys Green deacetylase as substrate by fluorescent microplate reader assay.
Sequence of Histone deacetylase 1 (Q13547 whole entry): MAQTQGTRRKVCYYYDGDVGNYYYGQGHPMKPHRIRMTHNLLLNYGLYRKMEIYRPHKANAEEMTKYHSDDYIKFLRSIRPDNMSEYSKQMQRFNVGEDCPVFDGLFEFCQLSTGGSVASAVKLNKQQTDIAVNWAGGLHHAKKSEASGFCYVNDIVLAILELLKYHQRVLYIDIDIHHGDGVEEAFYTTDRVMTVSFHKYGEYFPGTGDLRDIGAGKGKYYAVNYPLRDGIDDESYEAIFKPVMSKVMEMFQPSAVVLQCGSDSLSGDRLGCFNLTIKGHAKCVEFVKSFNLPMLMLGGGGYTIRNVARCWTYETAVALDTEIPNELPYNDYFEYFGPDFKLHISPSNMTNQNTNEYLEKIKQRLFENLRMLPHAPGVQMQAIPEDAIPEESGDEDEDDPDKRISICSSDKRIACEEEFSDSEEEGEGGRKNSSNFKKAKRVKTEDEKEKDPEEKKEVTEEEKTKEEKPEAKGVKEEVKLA
Another experiment addresses Histone deacetylase 5 (Homo sapiens, UniProt Q9UQL6). In words: Inhibition of recombinant human ful length N-terminal GST-tagged HDAC5 expressed in baculovirus expression system using Nepsilon-Trifluoroacetyl L-lysine as substrate by fluorescent microplate reader assay.
The target in experiment [2] is T2, Polyamine deacetylase HDAC10 (Homo sapiens, UniProt Q969S8).
T2 sequence (Q969S8 whole entry): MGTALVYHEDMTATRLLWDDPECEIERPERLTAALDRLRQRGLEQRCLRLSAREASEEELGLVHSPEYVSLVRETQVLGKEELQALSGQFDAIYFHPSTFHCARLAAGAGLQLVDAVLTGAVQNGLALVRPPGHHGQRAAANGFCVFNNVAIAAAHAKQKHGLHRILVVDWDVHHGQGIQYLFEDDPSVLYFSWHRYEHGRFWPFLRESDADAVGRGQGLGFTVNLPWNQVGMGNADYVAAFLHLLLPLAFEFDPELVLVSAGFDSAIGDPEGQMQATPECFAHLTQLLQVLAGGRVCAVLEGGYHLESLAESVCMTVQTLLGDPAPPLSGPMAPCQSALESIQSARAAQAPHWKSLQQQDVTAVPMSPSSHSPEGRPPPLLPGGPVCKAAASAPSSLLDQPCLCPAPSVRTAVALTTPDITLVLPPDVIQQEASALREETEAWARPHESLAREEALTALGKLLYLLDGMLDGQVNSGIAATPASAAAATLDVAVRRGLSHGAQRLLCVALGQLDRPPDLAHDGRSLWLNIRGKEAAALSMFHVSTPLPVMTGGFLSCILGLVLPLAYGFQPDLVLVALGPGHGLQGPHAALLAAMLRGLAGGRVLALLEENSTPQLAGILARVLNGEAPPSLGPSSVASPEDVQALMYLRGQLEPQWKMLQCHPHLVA
In words: Inhibition of recombinant human N-terminal FLAG-tagged HDAC10 (1 to 613 residues) expressed in Sf9 insect cells using Fluor de Lys deacetylase or Fluor de Lys Green deacetylase substrate by fluorescent microplate reader assay.

The target in a further experiment is Histone deacetylase 4 (Homo sapiens, UniProt P56524). The experiment is described as follows: Inhibition of recombinant human N-terminal GST-tagged and C-terminal His-tagged HDAC4 (627 to 1084 residues) expressed in Sf9 insect cells using Nepsilon-Trifluoroacetyl L-lysine as substrate by fluorescent microplate reader assay.
Sequence of Histone deacetylase 4 (P56524 whole entry, the tested form may be a part): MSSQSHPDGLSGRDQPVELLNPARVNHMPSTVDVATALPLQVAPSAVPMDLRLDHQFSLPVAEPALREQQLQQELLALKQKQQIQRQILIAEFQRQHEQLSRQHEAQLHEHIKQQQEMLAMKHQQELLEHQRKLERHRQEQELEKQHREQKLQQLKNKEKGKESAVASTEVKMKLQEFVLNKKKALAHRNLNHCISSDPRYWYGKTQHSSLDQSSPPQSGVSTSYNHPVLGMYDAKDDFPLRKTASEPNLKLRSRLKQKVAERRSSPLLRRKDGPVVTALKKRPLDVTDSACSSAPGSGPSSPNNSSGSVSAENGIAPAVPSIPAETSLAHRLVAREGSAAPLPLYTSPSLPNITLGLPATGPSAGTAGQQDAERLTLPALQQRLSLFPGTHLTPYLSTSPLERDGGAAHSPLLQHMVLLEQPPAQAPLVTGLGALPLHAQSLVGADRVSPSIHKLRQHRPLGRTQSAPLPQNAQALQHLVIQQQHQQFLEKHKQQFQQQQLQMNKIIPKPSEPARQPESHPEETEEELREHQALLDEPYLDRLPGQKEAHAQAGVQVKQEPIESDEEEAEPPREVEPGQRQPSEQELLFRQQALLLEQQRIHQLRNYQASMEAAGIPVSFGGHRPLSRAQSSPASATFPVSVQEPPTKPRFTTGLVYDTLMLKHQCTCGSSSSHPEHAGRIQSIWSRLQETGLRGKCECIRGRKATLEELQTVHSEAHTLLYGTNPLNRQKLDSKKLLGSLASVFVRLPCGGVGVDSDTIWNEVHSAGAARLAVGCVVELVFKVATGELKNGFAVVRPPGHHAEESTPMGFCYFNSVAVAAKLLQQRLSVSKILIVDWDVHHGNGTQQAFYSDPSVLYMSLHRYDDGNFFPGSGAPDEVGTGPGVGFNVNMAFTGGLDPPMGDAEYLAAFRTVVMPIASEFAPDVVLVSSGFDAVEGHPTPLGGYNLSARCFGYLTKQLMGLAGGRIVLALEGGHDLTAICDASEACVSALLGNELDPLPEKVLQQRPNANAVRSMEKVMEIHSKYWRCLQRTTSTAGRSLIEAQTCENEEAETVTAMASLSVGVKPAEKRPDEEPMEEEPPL
For the next experiment, the target named is Histone deacetylase 9 (Homo sapiens, UniProt Q9UKV0). In words: Inhibition of recombinant human C-terminal His-tagged HDAC9 (604 to 1066 residues) expressed in baculovirus expression system using Nepsilon-Trifluoroacetyl L-lysine substrate by fluorescent microplate reader assay.
Sequence of Histone deacetylase 9 (Q9UKV0 whole entry, the tested form may be a part): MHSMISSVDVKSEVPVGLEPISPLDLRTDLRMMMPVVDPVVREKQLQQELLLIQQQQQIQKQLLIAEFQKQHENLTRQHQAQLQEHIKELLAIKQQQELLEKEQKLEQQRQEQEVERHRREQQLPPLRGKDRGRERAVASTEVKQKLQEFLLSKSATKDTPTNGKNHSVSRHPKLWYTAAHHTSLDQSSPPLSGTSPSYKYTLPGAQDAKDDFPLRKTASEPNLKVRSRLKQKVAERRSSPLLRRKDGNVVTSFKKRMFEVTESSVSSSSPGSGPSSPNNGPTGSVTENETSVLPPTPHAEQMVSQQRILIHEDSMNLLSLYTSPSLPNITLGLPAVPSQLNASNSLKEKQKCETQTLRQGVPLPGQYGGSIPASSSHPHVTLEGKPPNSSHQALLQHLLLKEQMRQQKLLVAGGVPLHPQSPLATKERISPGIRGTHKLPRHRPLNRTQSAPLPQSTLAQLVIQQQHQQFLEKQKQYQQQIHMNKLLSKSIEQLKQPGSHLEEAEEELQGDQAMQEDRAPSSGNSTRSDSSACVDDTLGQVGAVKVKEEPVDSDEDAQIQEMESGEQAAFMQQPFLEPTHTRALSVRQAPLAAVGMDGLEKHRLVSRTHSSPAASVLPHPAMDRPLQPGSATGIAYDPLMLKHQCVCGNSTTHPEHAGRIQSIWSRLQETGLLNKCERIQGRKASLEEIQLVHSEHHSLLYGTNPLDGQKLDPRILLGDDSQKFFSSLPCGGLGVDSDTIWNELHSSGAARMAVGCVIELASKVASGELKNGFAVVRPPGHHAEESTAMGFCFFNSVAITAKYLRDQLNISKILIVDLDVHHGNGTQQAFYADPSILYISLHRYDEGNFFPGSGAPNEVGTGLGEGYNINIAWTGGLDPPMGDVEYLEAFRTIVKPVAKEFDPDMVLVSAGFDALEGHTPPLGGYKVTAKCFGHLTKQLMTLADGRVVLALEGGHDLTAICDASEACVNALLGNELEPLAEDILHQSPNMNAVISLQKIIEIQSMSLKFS
In the next experiment the target is Histone deacetylase 3 (Homo sapiens, UniProt O15379). In words: Inhibition of recombinant human C-terminal His-tagged HDAC3 (1 to 428 residues) expressed in Sf9 insect cells using Fluor de Lys deacetylase or Fluor de Lys Green deacetylase substrate by fluorescent microplate reader assay.
Sequence of Histone deacetylase 3 (O15379 whole entry, the tested form may be a part): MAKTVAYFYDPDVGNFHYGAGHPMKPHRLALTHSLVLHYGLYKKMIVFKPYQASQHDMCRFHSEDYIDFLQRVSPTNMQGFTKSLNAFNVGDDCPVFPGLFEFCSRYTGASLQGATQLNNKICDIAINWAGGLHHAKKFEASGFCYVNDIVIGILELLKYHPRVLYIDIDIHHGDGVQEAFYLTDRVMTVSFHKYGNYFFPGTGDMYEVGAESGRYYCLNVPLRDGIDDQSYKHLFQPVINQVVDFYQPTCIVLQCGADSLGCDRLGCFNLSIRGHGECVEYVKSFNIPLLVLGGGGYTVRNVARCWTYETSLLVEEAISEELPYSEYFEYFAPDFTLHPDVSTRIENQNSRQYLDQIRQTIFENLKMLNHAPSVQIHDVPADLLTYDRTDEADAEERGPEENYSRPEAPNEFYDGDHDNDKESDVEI
In another experiment the target is Histone deacetylase 2 (Homo sapiens, UniProt Q92769). The experiment is described as follows: Inhibition of recombinant human C-terminal His-tagged HDAC2 (1 to 488 residues) expressed in Sf9 insect cells using Fluor de Lys deacetylase or Fluor de Lys Green deacetylase substrate by fluorescent microplate reader assay.
Sequence of Histone deacetylase 2 (Q92769 whole entry, the tested form may be a part): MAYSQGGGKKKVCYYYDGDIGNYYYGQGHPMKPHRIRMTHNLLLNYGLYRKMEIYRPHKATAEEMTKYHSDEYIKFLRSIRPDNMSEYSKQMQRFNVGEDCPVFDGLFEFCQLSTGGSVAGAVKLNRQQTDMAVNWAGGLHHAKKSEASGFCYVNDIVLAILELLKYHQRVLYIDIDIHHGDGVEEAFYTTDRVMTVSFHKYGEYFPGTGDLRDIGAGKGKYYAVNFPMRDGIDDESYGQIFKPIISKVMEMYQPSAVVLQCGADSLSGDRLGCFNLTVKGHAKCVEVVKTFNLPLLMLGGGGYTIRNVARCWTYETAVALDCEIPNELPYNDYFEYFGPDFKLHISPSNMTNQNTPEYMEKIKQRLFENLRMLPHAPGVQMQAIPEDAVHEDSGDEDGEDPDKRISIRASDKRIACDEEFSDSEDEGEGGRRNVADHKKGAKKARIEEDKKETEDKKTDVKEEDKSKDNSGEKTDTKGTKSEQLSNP
The next experiment has as its target T3, Histone deacetylase 11 (Homo sapiens, UniProt Q96DB2).
T3 sequence (Q96DB2 whole entry): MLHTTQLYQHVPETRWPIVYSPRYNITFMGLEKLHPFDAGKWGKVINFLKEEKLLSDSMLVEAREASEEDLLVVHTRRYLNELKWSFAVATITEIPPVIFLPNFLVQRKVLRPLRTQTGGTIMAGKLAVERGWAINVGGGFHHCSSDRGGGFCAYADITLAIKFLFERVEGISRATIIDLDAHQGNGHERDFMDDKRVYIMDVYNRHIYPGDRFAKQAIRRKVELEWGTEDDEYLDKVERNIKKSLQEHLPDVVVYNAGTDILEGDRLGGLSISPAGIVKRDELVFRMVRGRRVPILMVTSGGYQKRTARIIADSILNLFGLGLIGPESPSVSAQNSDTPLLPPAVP
In words: Inhibition of recombinant human N-terminal His-tagged HDAC11 expressed in baculovirus expression system using Fluor de Lys deacetylase or Fluor de Lys Green deacetylase substrate by fluorescent microplate reader assay.

A further experiment has as its target T4, Histone deacetylase 8 (Homo sapiens, UniProt Q9BY41).
T4 sequence (Q9BY41 whole entry): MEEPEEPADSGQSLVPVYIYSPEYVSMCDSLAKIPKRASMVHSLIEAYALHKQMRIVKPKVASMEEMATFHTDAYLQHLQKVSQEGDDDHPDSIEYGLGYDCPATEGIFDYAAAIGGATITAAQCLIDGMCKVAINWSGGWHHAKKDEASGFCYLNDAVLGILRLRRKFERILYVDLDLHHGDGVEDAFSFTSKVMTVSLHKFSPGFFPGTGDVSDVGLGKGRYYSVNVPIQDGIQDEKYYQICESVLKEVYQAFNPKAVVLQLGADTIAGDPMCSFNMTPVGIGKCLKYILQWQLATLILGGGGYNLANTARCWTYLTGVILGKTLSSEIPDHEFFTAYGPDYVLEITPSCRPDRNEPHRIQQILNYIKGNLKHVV
In words: Inhibition of recombinant human full length C-terminal His-tagged HDAC8 expressed in baculovirus expression system using Fluor de Lys deacetylase or Fluor de Lys Green deacetylase substrate by fluorescent microplate reader assay.

Sequence of Histone deacetylase 5 (Q9UQL6 whole entry): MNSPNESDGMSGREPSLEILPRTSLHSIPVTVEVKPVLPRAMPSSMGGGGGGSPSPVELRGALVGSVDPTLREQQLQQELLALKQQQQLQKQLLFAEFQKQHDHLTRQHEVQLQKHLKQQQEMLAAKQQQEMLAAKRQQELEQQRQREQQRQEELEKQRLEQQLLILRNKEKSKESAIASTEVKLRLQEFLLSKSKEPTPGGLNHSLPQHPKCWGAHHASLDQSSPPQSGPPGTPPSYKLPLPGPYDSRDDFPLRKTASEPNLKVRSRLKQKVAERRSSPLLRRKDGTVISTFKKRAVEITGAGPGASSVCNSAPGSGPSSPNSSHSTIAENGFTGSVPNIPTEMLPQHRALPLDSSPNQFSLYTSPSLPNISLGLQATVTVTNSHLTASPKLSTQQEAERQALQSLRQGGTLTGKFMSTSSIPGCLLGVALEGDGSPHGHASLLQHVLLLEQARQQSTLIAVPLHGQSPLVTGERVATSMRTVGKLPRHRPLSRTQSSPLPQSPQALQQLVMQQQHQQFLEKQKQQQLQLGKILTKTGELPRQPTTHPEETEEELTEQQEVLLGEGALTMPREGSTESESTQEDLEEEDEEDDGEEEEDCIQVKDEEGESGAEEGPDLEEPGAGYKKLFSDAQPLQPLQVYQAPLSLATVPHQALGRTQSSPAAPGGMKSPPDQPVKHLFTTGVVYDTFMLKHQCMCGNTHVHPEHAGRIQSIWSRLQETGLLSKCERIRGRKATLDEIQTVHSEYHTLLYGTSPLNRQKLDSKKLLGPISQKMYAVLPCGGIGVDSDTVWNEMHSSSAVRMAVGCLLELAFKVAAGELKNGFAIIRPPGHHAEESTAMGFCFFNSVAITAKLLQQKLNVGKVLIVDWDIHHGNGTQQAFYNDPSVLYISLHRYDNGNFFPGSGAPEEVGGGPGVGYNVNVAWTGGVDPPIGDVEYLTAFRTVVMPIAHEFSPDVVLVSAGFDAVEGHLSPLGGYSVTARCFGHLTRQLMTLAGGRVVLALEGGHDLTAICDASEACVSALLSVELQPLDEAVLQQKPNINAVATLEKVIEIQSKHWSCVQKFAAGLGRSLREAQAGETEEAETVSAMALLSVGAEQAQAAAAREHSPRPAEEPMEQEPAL

For `Cc1ccc(C(=O)NO)cn1`, the Selectivity Index in the experiment listed under Homo sapiens is 162. Also, the IC50 was found to be 0.07 µM in experiment [1] and 11.4 µM on Histone deacetylase 1.
In the case of `O=C(NO)c1cccc(F)c1`, the Selectivity Index in the experiment filed under Homo sapiens amounted to 64. Further, the IC50 in experiment [1] was determined as 0.453 µM; at Histone deacetylase 1 it was 29.4 µM.
In the case of `O=C(NO)c1cc(F)c(Cn2nnc(-c3ncccn3)n2)c(F)c1`, the IC50 on Histone deacetylase 5 came to 2.79 µM; in experiment [2], 9.08 µM; at Histone deacetylase 4, 0.562 µM; on Histone deacetylase 9, 0.48 µM; at Histone deacetylase 3 it was 5.18 µM; at Histone deacetylase 2, 17.2 µM. Moreover, the IC50 came out at 3.96 µM at Histone deacetylase 1, 3.07 µM on Histone deacetylase 11 and 0.504 µM at Histone deacetylase 8.
For `Nc1ccc(C(=O)NO)cc1F`, the Selectivity Index in the experiment filed under Homo sapiens is 40. Besides, the half-maximal inhibitory concentration (IC50) in experiment [1] is 0.183 µM; on Histone deacetylase 1, 7.39 µM.
As to `O=C(NO)c1cc(F)c(Cn2nnnc2-c2cccs2)c(F)c1`, the IC50 in [2] was determined as 8.74 µM; at Histone deacetylase 3, 6.04 µM; on Histone deacetylase 2 it was 9.23 µM; on Histone deacetylase 11 it was 5.66 µM.
For the molecule `CCN(CC)Cc1ccc2cc(COC(=O)Nc3c(F)cc(C(=O)NO)cc3F)ccc2c1`, the Selectivity Index in the experiment listed under Homo sapiens worked out at 70. Also, the values for the IC50 (in experiment [1]; on Histone deacetylase 1) were 0.01 µM and 0.718 µM, respectively.
`Cc1ccc(C(=O)NO)cc1F`: the Selectivity Index in the experiment listed under Homo sapiens was 140. Further, the IC50 in experiment [1] was 0.049 µM; on Histone deacetylase 1 it was 6.82 µM.
Take `Nc1ccc(C(=O)NO)cc1`: the Selectivity Index in the experiment listed under Homo sapiens stood at 18. Moreover, the results for the IC50 (in [1]; at Histone deacetylase 1) were 0.389 µM and 7.14 µM, respectively.
For `O=C(NO)c1ccccc1` [BENZOHYDROXAMATE], in that order: 19, 1.34 µM and 25.4 µM.
For `CC(=O)Nc1ccc(C(=O)NO)cc1F`, the Selectivity Index in the experiment filed under Homo sapiens was determined as 55. In addition, the IC50 was 0.058 µM in experiment [1] and 3.21 µM on Histone deacetylase 1.
`Nc1ccc(C(=O)NO)cn1`: the Selectivity Index in the experiment listed under Homo sapiens is 40. Besides, the IC50 amounted to 0.24 µM in experiment [1] and 9.71 µM at Histone deacetylase 1.
In the case of `Nc1ncc(C(=O)NO)cn1`, in the experiment filed under Homo sapiens, the Selectivity Index amounted to 47. Besides, the IC50 in experiment [1] was 0.064 µM; on Histone deacetylase 1 it was 3.06 µM.
For `Nc1c(F)cc(C(=O)NO)cc1F`, in that order: 141, 0.112 µM and 15.8 µM.
On to `CC(=O)Nc1ccc(C(=O)NO)cc1`, for which, in the experiment listed under Homo sapiens, the Selectivity Index amounted to 11. For the same molecule, the IC50 is 0.162 µM in experiment [1] and 1.91 µM at Histone deacetylase 1.
With `O=C(NO)c1cccnc1` [NICOXAMAT], in the experiment filed under Homo sapiens, the Selectivity Index amounted to 51. Moreover, the IC50 in [1] amounted to 0.679 µM; at Histone deacetylase 1, 35 µM.
Regarding `Cc1c(F)cc(C(=O)NO)cc1F`, in the experiment listed under Homo sapiens, the Selectivity Index was found to be 505. Further, the IC50 was 0.027 µM in experiment [1] and 13.8 µM at Histone deacetylase 1.
For the molecule `Cc1ccc(C(=O)NO)cc1`, the Selectivity Index in the experiment listed under Homo sapiens turned out to be 40. Also, the results for the IC50 (in experiment [1]; at Histone deacetylase 1) were 0.14 µM and 5.64 µM, respectively.

Broadly, the IC50 is the midpoint of a concentration-inhibition curve.
